According to patent US20150031743A1, “CELL TRANSFECTING FORMULATIONS OF SMALL INTERFERING RNA, RELATED COMPOSITIONS AND METHODS OF MAKING AND USE” (NOVARTIS VACCINES AND DIAGNOSTICS, INC., priority 2003, published 2015):

Assays:
firefly luciferase = assay: Loss of luciferase activity after siRNA transfection, Promega Dual-Luciferase Reporter Assay (Example 2, FIG. 3); assay type: cell-based; conditions: MDA231 stably expressing luciferase, control non-transfected cell line
Protocol: (§1) For each transfection mixture (which are examples of compositions in accordance with the present invention), a lipitoid or lipitoid/cholesteroid combination delivery vehicle was prepared to a working concentration of 0.5 mM in water and mixed to yield a uniform solution. The siRNA was prepared to a working concentration of 20 μM in buffer supplied with the siRNAs. In this example, the siRNAs were for Akt1 mRNA and had the sequence […] (SEQ ID No: 1) with two 2′ O-methyl UU (RNA) nucleotide 3′-overhangs and phosphodiester links throughout (available from Integrated DNA Technologies). The siRNA was diluted in OptiMEM™ (Gibco/BRL), in a microfuge tube, to 1 μM, or approximately 15 μg oligo/ml of OptiMEM™. In a separate microfuge tube, vehicle, typically in the amount of about 3.75 nmol vehicle/100 pmol siRNA, was diluted into the same volume of OptiMEM™ used to dilute the siRNA. […] Note that the exact ratio of siRNA to vehicle must be determined empirically for each cell type, but generally is about this amount. The diluted siRNA was immediately added to the diluted vehicle and mixed by pipetting up and down. The mixture was allowed to incubate at room temperature for 10 minutes.
Cells were plated on tissue culture dishes one day in advance of transfection, in growth media with serum, to yield a density at transfection of 60-90%. The siRNA/vehicle mixture was added to the cells immediately after mixing and incubation, to a final concentration of 50-100 nM siRNA in half the normal growth medium volume. Cells were incubated with the transfection mixture at 37° C., 5% CO2 for 4-24 hours. […]
Transfection mixtures were prepared using siRNA against firefly luciferase (CGUACGCGGAAUACUUCGA (SEQ ID No: 2); from Elbashir et al., Nature, 411, 494 (2001)) and several different delivery vehicles in accordance with the present invention as described herein (L1, L2, L1/C1, L4 1L1/3C1) substantially as described in Example 1. Luciferase activity was quantified with the Promega Dual-Luciferase Reporter Assay System according to package directions. […]

Akt1 mRNA = assay: siRNA inhibition of Akt1 mRNA in MDA435 breast cancer cells (Example 1, FIG. 2); assay type: cell-based; conditions: presence or absence of serum, Akt1 message normalized to average of HPRT and GUSB
Protocol: as §1
Cells were plated on tissue culture dishes one day in advance of transfection, in growth media with serum, to yield a density at transfection of 60-90%. […]

Row | Substance | luciferase activity after transfection of siRNA against luciferase (firefly luciferase) | Akt1 expression after transfection of siRNA directed against Akt1 mRNA (Akt1 mRNA)
1 | DMPE(NaeNiaNia)3 [Lipitoid L2] | substantially reduced | loss of Akt1 expression
2 | NtdNhd(NaeNmpeNmpe)3 [Lipitoid L3] |  | loss of Akt1 expression
3 | DMPE(NaeNmpeNmpe)3 [Lipitoid L1] | substantially reduced | 
4 | NddNol(NaeNmpeNmpe)3 [Lipitoid L4] | substantially reduced | 
